# According to patent US10905672B2, “Combination of baclofen, acamprosate and medium chain triglycerides for the treatment of neurological disorders” (PHARNEXT, priority 2014, dated 2021):
# “Also recorded” adds a separate entry of the source.
# What was measured:
# [1] = test system: Abeta 25-35 intoxicated mice; test: Spontaneous alternation performance, Y-maze test (spatial working memory) after icv Abeta 25-35; type: in vivo, Swiss mice; conditions: tested day 7
# Protocol: (§1) Male Swiss mice are used throughout the study. Animals are housed in plastic cages, with free access to laboratory chow and water, except during behavioral experiments, and kept in a regulated environment, under a 12 h light/dark cycle (light on at 8:00 a.m.). Experiments are carried out in a soundproof and air-regulated experimental room to which mice have been habituated at least 30 min before each experiment.
# (§2) Drug(s) is/are administered daily by gavage (per os). The Abeta 25-35 peptide and scrambled Abeta 25-35 peptide (control) have been dissolved in sterile bidistilled water, and stored at −20° C. until use. The Abeta peptides are then administered intracerebroventricularly (icy). In brief, each mouse is anesthetized lightly with ether, and a gauge stainless-steel needle is inserted unilaterally 1 mm to the right of the midline point equidistant from each eye, at an equal distance between the eyes and the ears and perpendicular to the plane of the skull. Peptides or vehicle are delivered gradually within approximately 3 s. […] The administration site is checked by injecting Indian ink in preliminary experiments. Neither insertion of the needle nor injection of the vehicle has a significant influence on survival, behavioral responses or cognitive functions.
# On day −1, i.e., 24 h before the Abeta 25-35 peptide injection, drugs, candidate combinations, baclofen acamprosate mix, or the vehicle solution are administered per os by gavage twice daily (at 8:00 a.m. and 6:00 p.m.), and caprylic triglyceride is administered per os by gavage once daily (at 8:00 a.m.).
# On day 0 (at 10:00 a.m.), mice are injected icy with Abeta 25-35 peptide or scrambled Abeta 25-35 peptide (control) in a final volume of 3 μL (3 mM).
# Between day 0 and day 7, drugs, drug combinations or the vehicle solution are administered per os by gavage once or twice daily (at 8:00 a.m. for caprylic triglyceride or at 8:00 a.m. and 6:00 p.m. for baclofen and acamprosate). As a positive control, one animal group receives donepezil (reference compound—1 mg/kg/day) per os by gavage in a single injection (at 8:00 a.m.). Drugs are solubilized in water and freshly prepared just before each gavage administration.
# On day 7, all animals are tested for spontaneous alternation performance in the Y-maze test, an index of spatial working memory (short-term memory).
# On day 7, all animals are tested for spontaneous alternation performance in the Y-maze, an index of spatial working memory. The Y-maze is made of grey polyvinylchloride. Each arm is 40 cm long, 13 cm high, 3 cm wide at the bottom, 10 cm wide at the top, and converges at an equal angle. Each mouse is placed at the end of one arm and allowed to move freely through the maze during an 8 min session. The series of arm entries, including possible returns into the same arm, are checked visually. An alternation is defined as entries into all three arms on consecutive occasions. The number of maximum alternations is therefore the total number of arm entries minus two and the percentage of alternation is calculated as (actual alternations/maximum alternations)×100. Parameters include the percentage of alternation (memory index) and total number of arm entries (exploration index). Animals that show an extreme behavior (alternation percentage <25% or >85% or number of arm entries <10) are discarded. Usually, this accounts for 0-5% of the animals. […]
# [2] = test system: Abeta 25-35 intoxicated mice; test: Step-through passive avoidance test (contextual long-term memory) after icv Abeta 25-35; type: in vivo, Swiss mice
# Protocol: as §1
# as §2, with “functions. […]” for “functions.”
# On days 8 and 9, the contextual long-term memory of the animals is assessed using the step-through type passive avoidance procedure.
# The apparatus is a two-compartment (15×20×15 cm high) box with one compartment being illuminated with white polyvinylchloride walls and the other compartment darkened with black polyvinylchloride walls and a grid floor. […] The step-through latency, that is, the latency spent to enter the darkened compartment, and the number of vocalizations is recorded. […] After 5 s the door is raised, and the step-through latency and the escape latency, i.e., the time spent to return into the white compartment, are recorded up to 300 s.
smiles,measurement,setting,value
"CCCCCCCC(=O)OCC(COC(=O)CCCCCCC)OC(=O)CCCCCCC [C8 MCT, caprylic triglyceride]",effect on working memory (percentage of alternation) compared to Abeta 25-35 intoxicated animals,"[1]; caprylic triglyceride alone, 0.555, 1.66 and 5 g/kg/d per os once daily, FIG. 1-A",does not improve working memory
same,effect on working memory (percentage of alternation) compared to Abeta 25-35 intoxicated animals,"[1]; caprylic triglyceride alone, 0.555, 1.66 and 5 g/kg/d per os once daily, FIG. 1-A, listed as caprylic triglyceride",No significant effect
same,effect on memory defects (step-through latency) compared to Abeta 25-35 intoxicated animals,"[2]; C8 MCT alone, 0.555, 1.66 and 5 g/kg/d per os, FIG. 2-A",does not provide any statistically significant effect
"NCC(CC(=O)O)c1ccc(Cl)cc1 (centres unmarked) [Baclofen, baclofen]",effect on working memory (percentage of alternation) compared to Abeta 25-35 intoxicated animals,"[1]; baclofen alone, 480 μg/kg/bid per os, FIG. 1-B",does not improve working memory
same,effect on working memory (percentage of alternation) compared to Abeta 25-35 intoxicated animals,"[1]; baclofen alone, 480 μg/kg/bid per os, FIG. 1-B, listed as baclofen",No significant effect
same,effect on memory defects (step-through latency) compared to Abeta 25-35 intoxicated animals,"[2]; baclofen monotherapy, 480 μg/kg/bid per os, FIG. 2-B",does not provide any improvement
CC(=O)NCCCS(=O)(=O)O [acamprosate],effect on working memory (percentage of alternation) compared to Abeta 25-35 intoxicated animals,"[1]; acamprosate alone, 32 μg/kg/bid per os, FIG. 1-B",No significant effect; also recorded: does not improve working memory
same,effect on memory defects (step-through latency) compared to Abeta 25-35 intoxicated animals,"[2]; acamprosate monotherapy, 32 μg/kg/bid per os, FIG. 2-B",does not provide any improvement
